Measurements from patent EP4810009A1, “MELANOGENESIS INHIBITOR AND EXTERNAL PREPARATION FOR SKIN CONTAINING SAME” (MITSUBISHI GAS CHEMICAL COMPANY, INC., priority 2023, dated 2025).

Key:
[1] = system: Cutibacterium acnes NBRC 107605; test: Ability to eliminate acne bacteria; format: cell-based; conditions: 0.05 mL of aqueous solution of 7% by weight of organic acid added to 5 mL test solution; viable cell count after 60 seconds
Protocol: 0.05 mL of an aqueous solution of 7% by weight of organic acid was added dropwise to 5 mL of a test solution containing the bacterial strain Cutibacterium acnes NBRC 107605 at a concentration of 10^8 CFU/mL. After 60 seconds, if the viable cell count was less than 1%, it was evaluated as A; if the viable cell count was 1% or more, it was evaluated as B. [Table 10]

pig skin = test: Chemical peeling ability; conditions: aqueous solution of 7% by weight of organic acid on pig skin for 24 hours; decrease of stratum corneum thickness
Protocol: An aqueous solution of 7% by weight of organic acid was allowed to act on to pig skin for 24 hours. If the thickness of the stratum corneum decreased by 10% or more, it was evaluated as A; if it decreased by less than 10%, it was evaluated as B.

[2] = Solubility in oils (saturated solubility of oleic acid in organic acid solution); format: physicochemical; conditions: oleic acid in aqueous solution of 50% by weight of organic acid; room temperature (23°C), 24 hours
Protocol: Oleic acid was added into an aqueous solution of 50% by weight of organic acid, and the mixed solution was then stirred at room temperature (23°C) for 24 hours.

[3] = Solubility in oils and fats (saturated solubility of palmitic acid in organic acid solution); format: physicochemical; conditions: palmitic acid in aqueous solution of 50% by weight of organic acid; room temperature (23°C), 24 hours
Protocol: Palmitic acid was added into an aqueous solution of 50% by weight of organic acid, and the mixed solution was then stirred at room temperature (23°C) for 24 hours.

B16 melanoma [4] = test: Cytotoxicity test (Cell counting Kit 8); format: cell-based, mouse; conditions: 100 µM methyl lactic acid, one day of culture, Figure 2
Protocol: Cell culture was performed by the same method as that in Example 1 mentioned above.
The test sample was prepared by the same method as that in Example 1 mentioned above.
Cells were detached from the culture obtained under the cell culture conditions described in Example 1, and 0.1 mL of cells and medium were each seeded into a 96-well vessel to a cell concentration of 5 x 10^4 cells/mL. After one day of culture, the medium was removed and replaced with the test sample. After one further day of culture, the vessel was washed with an assay medium, and 0.1 mL each of a 1 : 9 mixed solution of Cell counting Kit 8 and medium was added. After the mixture had been left at rest at 37°C for 30 minutes in the presence of 5% carbon dioxide, the absorbance at 450 nm was measured using a plate reader, and the cell count was calculated.
The cell count (%) is a relative value (%) in a case where the cell count in the negative control (medium alone) is taken as 100%, and for each case, it is an average value of the values measured for 16 samples.

B16 melanoma [5] = test: Evaluation of melanin production inhibitory activity; format: cell-based, mouse; conditions: 100 µM methyl lactic acid, pH 6.5 with NaOH; one day of culture; compared with kojic acid 1 mM positive control; Figure 1
Protocol: As melanin-producing cells, mouse-derived skin melanoma cells, B16 melanoma (JCRB0202, purchased from JCRB Cell Bank) were used. As a medium for cell culture, 500 mL of E-MEM medium was mixed with 5 mL of x 100 penicillin-streptomycin solution and 100 mL of inactivated fetal bovine serum (manufactured by West Bio), and the resulting medium was used. For the subculture of cells, the cells were washed with a phosphate buffer (manufactured by GIBCO), and were detached from the vessel with 0.25% trypsin and EDTA (ethylenediaminetetraacetic acid), followed by addition of a medium, and the obtained mixture was centrifugated to separate the cels. To ensure stable cell culture, the cell concentration was adjusted to 5 to 16 x 10^4 cells/mL, and the cells were then cultured in a 10-cm petri dish or a plastic culture flask (175 cm^2) in the presence of 5% carbon dioxide at 37°C. […] The absorbance at 450 nm was measured using a plate reader, and the melanin concentration was calculated. […] The melanin production percentage (%) shown in Figure 1 is a relative value (%) in a case where the melanin concentration in the negative control is taken as 100%, and for each case, it is an average value of the values measured for 12 samples.

tyrosinase mRNA = test: Evaluation of suppression of melanin synthesis-related factor mRNA expression (Real-time PCR); format: cell-based; conditions: normal human melanocytes; 10 and 20 mM; 24 hours; Figure 5
Protocol: Normal human melanocytes (manufactured by Kurabo Industries, Ltd.) were used as melanin-producing cells. As a medium for the cells, […] was used. The cell concentration was adjusted to 3 x 10^4 cells/mL, and the cells were cultured in a 96-well plate in the presence of 5% carbon dioxide at 37°C for 24 hours. As a test sample, NaOH was added to methyl lactic acid to adjust the pH to 6.5, and was used. […] As a control, […], into which methyl lactic acid was not added, was used. The medium was replaced with the test sample (100 μL/well) and cultured for 24 hours. After removing the medium, RNA was extracted using Cells-to-Ct kit (manufactured by Themo), and was then subjected to reverse transcription to synthesize cDNA. Using the resulting cDNA, Real-time PCR was carried out, and the relative expression level of mRNA was calculated. In Figure 5, "Control" is a negative control, which uses a medium without the test sample.

tyrosinase = test: Tyrosinase biosynthesis inhibitory action test (DOPA-melanin per unit protein in cell lysate); format: cell-based; conditions: normal human melanocytes; 2.5, 5, 10, 20, and 40 mM; one day of culture; Figure 3
Protocol: (§1) Normal human melanocytes (manufactured by Kurabo Industries, Ltd.) were used as melanin-producing cells. As a medium for the cells, Dermalife (manufactured by Kurabo Industries, Ltd.) was used. The cell concentration was adjusted to 3 x 10^4 cells/mL, and the cells were cultured in a 96-well plate in the presence of 5% carbon dioxide at 37°C for 24 hours.
(§2) As a test sample, NaOH was added to methyl lactic acid to adjust the pH to 6.5, and was used. […]. As a control, Dermalife, into which methyl lactic acid was not added, was used.
The medium was removed from the culture obtained under the aforementioned cell culture conditions and replaced with the test sample. After one day of culture, the medium was removed, and a phosphate buffer containing 0.5% Triton X-100 was added in an amount of 50 µL/well. The cells were lysed by agitation. 50 µL of the cell lysate was mixed with 50 µL of phosphate buffer containing 2 mM DOPA, and the obtained mixture was then incubated at 37°C for 2 hours. The absorbance (measurement wavelength: 405 nm, reference wavelength: 650 nm) was measured, and the amount of DOPA-melanin was calculated from a calibration curve. The amount of the protein was quantified using a BCA protein assay kit (Thermo), and the amount of DOPA-melanin per unit protein was then calculated to confirm tyrosinase biosynthesis inhibitory action. […]

tyrosinase protein = test: Tyrosinase protein expression inhibition test (Western blot); format: cell-based; conditions: normal human melanocytes; 20 mM; 48 hours; Figure 4
Protocol: as §1, with “Industries” for “Industries,”, “Dermalife” for “Dermalife (manufactured by Kurabo Industries, Ltd.)”, “10^5 cells/1.5 mL,” for “10^4 cells/mL,”, “6-well” for “96-well”
as §2
The medium was replaced with the test sample (1.5 mL/well) and cultured for 48 hours. After removing the medium, proteins were extracted using M-PER™ Mammalian Protein Extraction Reagent (manufactured by Themo), and were then developed by SDS-PAGE. After the resultant had been transferred onto a polyvinylidene difluoride (PVDF) membrane, the membrane was blocked with 5% skim milk. After a reaction had been performed with an anti-tyrosinase antibody (manufactured by Santa Cruz Biotechnology) for 1 hour, the membrane was further reacted with an HRP-conjugated secondary antibody (manufactured by abcam) for an additional 1 hour. Protein bands were detected using Ez West Blue W (manufactured by ATTO). The signal intensity of the resulting bands was detected using the image processing software ImageJ, and the relative protein expression levels were calculated. […]

SMILES | Ability to eliminate acne bacteria [1] | Chemical peeling ability (pig skin) | Solubility in oils [2] | Solubility in oils and fats [3] | cytotoxicity (cell count) (B16 melanoma [4]) | melanogenesis-inhibiting effect (melanin production percentage) (B16 melanoma [5]) | tyrosinase mRNA expression-suppressing action (relative expression level of tyrosinase mRNA) (tyrosinase mRNA) | tyrosinase biosynthesis inhibitory action (DOPA-melanin per unit protein) (tyrosinase) | tyrosinase protein expression inhibitory action (relative expression level of tyrosinase protein) (tyrosinase protein)
O=C(O)CO [Glvcolic acid] | A (if the viable cell count was less than 1%, it was evaluated as A) | A (If the thickness of the stratum corneum decreased by 10% or more, it was evaluated as A) |  |  |  |  |  |  | 
O=c1cc(CO)occ1O [Kojic acid, reference compound] | B (if the viable cell count was 1% or more, it was evaluated as B) | B (if it decreased by less than 10%, it was evaluated as B) | B (if it was less than 200 ppm, it was evaluated as B) | B (if it was less than 20 ppm, it was evaluated as B) |  |  |  |  | 
CC(O)C(=O)O (centres unmarked) [Lactic acid] | A (if the viable cell count was less than 1%, it was evaluated as A) | A (If the thickness of the stratum corneum decreased by 10% or more, it was evaluated as A) |  |  |  |  |  |  | 
CC(C)(O)C(=O)O [Methyl lactic acid, 2-hydroxyisobutyric acid] | A (if the viable cell count was less than 1%, it was evaluated as A) | A (If the thickness of the stratum corneum decreased by 10% or more, it was evaluated as A) | A (if the saturated solubility of oleic acid was 200 ppm or more, it was evaluated as A) | A (if the saturated solubility of palmitic acid was 20 ppm or more, it was evaluated as A) | cytotoxicity was not confirmed | the same melanogenesis-inhibiting effect as the addition of kojic acid | exhibited a tyrosinase mRNA expression-suppressing action | a tyrosinase biosynthesis inhibitory action was exhibited in a dose-dependent manner | a tyrosinase protein expression inhibitory action was exhibited
